Assay results published in patent publication US11925643B2, “Toll-like receptor 4 (TLR4) inhibitors and use thereof” (MOR RESEARCH APPLICATIONS LTD., priority 2018, dated 2024).
Each block holds one compound with its values, some of them ahead of it. Non-standard residues stand in square brackets, D forms with d. Residues, ends and D or L forms follow the SMILES beside them. 1Nal = N[C@@H](Cc1cccc2ccccc12)C(=O)O

Experiments:
primary cardiomyocytes [1] = assay: CK and LDH release by primary cardiomyocytes under hypoxia (MI like); assay type: cell-based, Rat; details: 10 μM, FIGS. 2A, 2B
Description: (§1) Rat hearts (1-2 days old) were removed under sterile conditions and washed three times in phosphate-buffered saline (PBS) to remove excess blood cells. The hearts were minced and then gently agitated in RBD (a solution of proteolytic enzymes (Biological Institute, Ness-Ziona, Israel) prepared from fig tree extract, and diluted 1:100 in Ca^2+- and Mg^2+-free PBS) for a few cycles of 10 min each. Dulbecco's modified Eagle's medium (Biological Industries, Kibbutz Beit Haemek, Israel) containing 10% horse serum was added to supernatant suspensions containing the dissociated cells. The mixture was centrifuged at 1400 rpm for 4 min. The supernatant phase was discarded, and the cells were re-suspended. The cell suspension was diluted to 1.0×10^6 cells/ml, unless stated otherwise, and 1.5 ml of the suspension was placed in 35-mm plastic culture dishes collagen- or gelatin-coated, or on coated cover glasses. The cultures were incubated in a humidified atmosphere of 5% CO2 and 95% air at 37° C.
Using a vacuum pump, the oxygen rich air was evacuated from an incubator containing plates with cell cultures, and a 100% Argon atmosphere was let in, while maintaining a temperature of 37° C. The cell cultures were washed with PBS twice to remove glucose from the medium. Hypoxic treated cells were cultures in PBS without glucose. These cells lasted for 180 minutes.
(§2) Primary cardiomyocytes which were obtained by method described above, were treated with exemplary decoy peptides described herein. After 30 minutes of incubation, sepsis like (LPS treatment for 6 hours), or myocardial infarction (MI) like (hypoxia for 3 hours) conditions were imposed to measure the release of CK and LDH to the medium and determine the potential cardioprotective effect of the tested decoy peptides. Cytotoxicity and level of cell damage were assessed by spectrophotometric measurement of lactate dehydrogenase (LDH) and creatine kinase (CK) activities (at 30° C.). Results are presented as CK and LDH release in arbitrary units (a.u.)
(§3) Activity of LDH and CK was determined in the cell-culture medium (25 μl) transferred into 96-well plates, using commercial L-LDH/CK kits (such as those manufactured, e.g., by Sigma-Aldrich, BioVision™ or Thermo Fisher Scientific®).
(§4) Primary cardiomyocytes were treated with peptides and peptidomimetics of SEQ ID NOs:1-7 provided at concentrations ranging from 1 μM to 20 μM. Following 30 minutes of incubation, sepsis like (LPS treatment for 6 hours) or MI like (hypoxia for 3 hours) conditions were induced to determine the potential cardioprotective effect of the tested compounds. Creatine kinase (CK) and lactate dehydrogenase (LDH) activity were assayed to determine the level of cellular damage and cell protection effect. The experimental procedure is described in Materials and Methods above. Results are presented as CK and LDH release in arbitrary units (a.u.).

primary cardiomyocytes [2] = assay: CK and LDH release by primary cardiomyocytes under LPS treatment (sepsis like); assay type: cell-based, Rat; details: LPS system; 10 μM
Description: as §1, §2, §3, §4

IκB = IκB protein level by Western blot in hypoxic cardiomyocytes; assay type: cell-based; details: normalized to β-actin
Description: Frozen tissue/cell cultures of liver or heart were pulverized under liquid nitrogen and placed in a homogenization buffer ([…] phosphate buffer, […] sucrose, […] EDTA, […] phenylmethylsulfonyl fluoride (PMSF), and 0.1% vol/vol tergitol, pH 7.5). Myocytes from cell cultures were homogenized in lysis buffer.
Homogenates were centrifuged at 12K rpm for 10 minutes at 4° C., the supernatant was isolated, and protein levels were visualized by immunoblotting with antibodies. Briefly, proteins (60 μg/sample) were separated using SDS-PAGE gel (12%-15%) under denaturing conditions and electro-transferred (blotted) onto nitrocellulose (Bio-Rad) for 1 hour at 100 V. Membranes were blocked with 5% nonfat milk in Tris-buffered saline with 0.1% Tween® 20 (TBST) for 1 hour at room temperature. Primary antibodies were used at a 1:200-1:1000 concentration in TBST with 5% nonfat milk overnight at 4° C. Immunodetection of β-actin/GPDH was performed as an internal control. Dye 800/680 secondary antibodies were added at a concentration of 1:15000 for 1 hour at room temperature (LI-COR® Biosciences, NE, USA). Detection was carried out with LI-CORE® Odyssey® imaging system. Quantification of signals was carried out with the Odyssey® program.
The mechanism of action of peptidomimetics of SEQ ID NOs:1, 2 and 12 was studied in vitro in cardiomyocytes, under hypoxic conditions, by determining the expression level of the IκB gene, which is regulated by activation of TLR4, and by measuring the TLR4 mRNA levels. In addition, TLR4 expression level was measured in macrophage (derived from monocytes) treated with LPS.
IκB protein level was determined by Western blot as described in Material and Methods. The amount of IκB was normalized via-a-vis the amount of β-actin serving as the loading control (the β-actin is coded by a housekeeping gene and its level is expected to remain constant under any experimental conditions).

TLR4 = biological target: T1, TLR4 (Homo sapiens, UniProt O00206); assay: FACS analysis of TLR4 expressed by macrophages exposed to LPS; assay type: cell-based; details: 10 μM
T1 construct: FACS analysis to test the expression of TLR4 protein by macrophages under LPS treatment; endogenous in cells; host or cells: human peripheral-blood monocytes differentiated into macrophages with M-CSF
T1 sequence (O00206 24-839): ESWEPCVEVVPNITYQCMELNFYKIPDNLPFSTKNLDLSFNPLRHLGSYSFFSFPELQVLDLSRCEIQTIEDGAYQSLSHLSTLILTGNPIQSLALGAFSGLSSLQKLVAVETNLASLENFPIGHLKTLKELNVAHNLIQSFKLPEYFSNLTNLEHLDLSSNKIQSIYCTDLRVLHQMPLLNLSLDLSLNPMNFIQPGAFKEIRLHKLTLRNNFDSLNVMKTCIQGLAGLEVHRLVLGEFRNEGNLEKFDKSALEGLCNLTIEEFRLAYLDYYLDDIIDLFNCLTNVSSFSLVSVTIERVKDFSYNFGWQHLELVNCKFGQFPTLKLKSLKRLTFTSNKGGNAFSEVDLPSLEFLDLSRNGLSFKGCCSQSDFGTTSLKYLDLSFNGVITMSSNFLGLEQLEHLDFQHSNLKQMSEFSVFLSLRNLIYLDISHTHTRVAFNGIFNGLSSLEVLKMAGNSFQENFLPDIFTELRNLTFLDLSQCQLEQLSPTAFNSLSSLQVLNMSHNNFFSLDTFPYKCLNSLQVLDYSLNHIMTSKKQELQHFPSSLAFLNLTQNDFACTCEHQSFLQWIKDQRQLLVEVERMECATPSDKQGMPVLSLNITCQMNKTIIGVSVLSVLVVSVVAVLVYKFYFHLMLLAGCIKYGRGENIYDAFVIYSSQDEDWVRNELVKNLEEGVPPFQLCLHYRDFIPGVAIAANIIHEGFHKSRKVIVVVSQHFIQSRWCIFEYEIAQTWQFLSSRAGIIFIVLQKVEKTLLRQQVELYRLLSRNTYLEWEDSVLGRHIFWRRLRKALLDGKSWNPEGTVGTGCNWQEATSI
Description: Flow cytometry is an analytical cell-biology technique that utilizes light to count and profile cells in a heterogenous fluid mixture. Flow cytometry analysis was used to evaluate binding of antibodies to TLR4 presenting cells. In this assay, an anti-TLR4 antibody was added to a monocytes suspension and cells which bound the antibody were visualized by a fluorescently labeled secondary antibody that bound to the anti-TLR4 antibody (Ab). Accordingly, samples were first “labeled” with the anti-TLR4 antibody, then incubated with Fluor® 488 conjugated to a secondary Ab for TLR4 (CD284) positive cells visualization.
In order to confirm the specificity of binding, and further in order to correct for non-specific or background staining, isotypes control mouse IgGs were added to cell suspensions at the same concentration as the anti-TLR4 Abs. To deduct the non-specific or background staining from the positive staining due to direct Ab binding to the antigen, the level of background staining was assessed by the use of the same fluorochrome as that used for staining the anti-TLR4 Ab.
Peripheral blood (30 ml) was obtained for the isolation of monocytes. Monocytes were purified by density gradient centrifugation as described above, and/or by adherence to plastic in RPMI 1640 medium supplemented with 10% fetal bovine serum (FBS) and antibiotics. Peripheral blood mononuclear cells (PBMCs) (10^6 cells/ml) were first seeded into 24-well plates (0.5 ml per well), after 2 hours, non-adherent cells were removed by several washes with warm PBS.
Monocytes freshly isolated either by density gradient centrifugation by adherence differentiated into macrophages in complete RPMI 1640 medium supplemented with human recombinant macrophage colony stimulating factor (100 ng/ml) for 6 days. To confirm macrophage cell lineage, direct immunostaining was performed with an antibody directed against CD11b/mac1 (Biolegend® Inc., San Diego, Calif., USA). Eighty percent (80%) of positive staining was observed by flow cytometry analysis. The proportion of TLR4 in this separated cell fraction was examined by FACS analysis using, as isotype control, mouse IgG2a IsoControl (eBioscience™ #53-4724-80), and mouse anti-human CD284 Alexa Fluor® 488 Clone FITA125 secondary Ab (Isotype IgG2a. eBioscience™ #53-9917-41), which recognizes the human TLR4 (also known as CD284) cell surface antigen. Cells were analyzed in a BC Gallios Flow Cytometer (Beckman Coulter, Indianapolis Ind., USA) and were initially gated on the basis of forward and side scatter characteristics. Kaluza Software was used to analyze the results. Results are expressed as mean fluorescence intensity (MFI) and also as normalized to control. […]

TLR4 mRNA = TLR4 mRNA level by RT-qPCR in hypoxic cardiomyocytes; assay type: cell-based; details: hypoxic conditions
Description: (§5) Real-time RT-PCR experiments were performed in duplicates on an ABI 7900 instrument (Applied Biosystems™) using Taqman™ Master Mix (Applied Biosystems™). The average threshold cycles (Ct) of the duplicates were used to calculate the relative expression levels of the following genes: TLR4 (Applied Biosystems™ assay primer ID: Mm00569848_m1 Tlr4), TLR2 (assay primer ID: Mm01769726_m1 Tlr2), TNF-α (assay primer ID: Mm00443260_g1 Tnf) and IL-1β (assay primer ID: Mm00434228_m1 II1b) in vitro and in vivo following hypoxia or ischemia, respectively. The reference gene was TBP and the primer used was derived from mouse TATA-box binding protein (Applied Biosystems™ assay primer ID: Mm00446973_m1 Tbp). Amounts of TLR2, TLR4, TNF-α and IL-1β mRNAs in each sample were calculated relative to TBP mRNA, based on the corresponding Cts, as Relative Quantity (RQ) values, and normalized taking as 1 a randomly selected sample of the control group (TBP mRNA). Calculation were performed using the Applied Biosystems Analysis™ software (StepOnePlus V2.2.2). All mRNA scores are presented in arbitrary units.
Next, peptidomimetics of SEQ ID NOs:1 and 2 were tested for their ability to affect the expression of TLR4. The level of TLR4 mRNA was measured by real-time reverse transcriptase polymerase chain reaction (RT-qPCR) method as described in Materials and Methods. The possible effect of both compounds on expression levels of TLR2 mRNA was used as a negative control.

TLR2 mRNA = TLR2 mRNA level by RT-qPCR in hypoxic cardiomyocytes (negative control); assay type: cell-based; details: hypoxic conditions
Description: as §5
Next, peptidomimetics of SEQ ID NOs:1 and 2 were tested for their ability to affect the expression of TLR4. The level of TLR4 mRNA was measured by real-time reverse transcriptase polymerase chain reaction (RT-qPCR) method as described in Materials and Methods. […]

SMILES: CC(=O)N[C@@H](Cc1ccccc1)C(=O)N[C@@H](C)C(=O)N[C@@H](CCC(=O)O)C(N)=O [SEQ ID NO:8, (S)-4-((S)-2-((S)-2-acetamido-3-phenylpropanamido)propanamido)-5-amino-5-oxopentanoic acid] (Ac-Phe-Ala-Glu-NH2)
cell protective effect (CK and LDH release) (primary cardiomyocytes [1]): substantial cell protective effect

SMILES: CC(C)[C@H](NC(=O)CN[C@@H](C)C(C)(C)C)C(=O)N[C@@H](Cc1ccccc1)C(=O)N[C@@H](C)C(N)=O [SEQ ID NO:17, (S)-N-((S)-1-(((S)-1-amino-1-oxopropan-2-yl)amino)-1-oxo-3-phenylpropan-2-yl)-2-(2-(((S)-3,3-dimethylbutan-2-yl)amino)acetamido)-3-methylbutanamide]
cellular protection / cytoprotective effect (CK and LDH release) (primary cardiomyocytes [2]): significant cytoprotective effect

SMILES: CC(=O)N[C@H](C(=O)N[C@@H](Cc1cccc2ccccc12)C(=O)N[C@@H](C)C(=O)N[C@@H](CCC(=O)O)C(N)=O)C(C)C [SEQ ID NO:19, (4S,7S,10S,13S)-13-carbamoyl-4-isopropyl-10-methyl-7-(naphthalen-1-ylmethyl)-2,5,8,11-tetraoxo-3,6,9,12-tetraazahexadecan-16-oic acid] (Ac-V[1Nal]AE-NH2)
cellular protection / cytoprotective effect (CK and LDH release) (primary cardiomyocytes [2]): significant cytoprotective effect

SMILES: CC[C@H](C)[C@H](NC(C)=O)C(=O)N[C@H](C(=O)NC(C(=O)N[C@@H](C)C(N)=O)c1cccc2ccccc12)C(C)C (stereo partly drawn) [SEQ ID NO:12, (2S,3S)-2-acetamido-N-((2S)-1-((2-(((S)-1-amino-1-oxopropan-2-yl)amino)-1-(naphthalen-1-yl)-2-oxoethyl)amino)-3-methyl-1-oxobutan-2-yl)-3-methylpentanamide]
IκB level (IκB): high levels

SMILES: CC(=O)N[C@@H](Cc1ccccc1)C(=O)NCCC(=O)N[C@@H](CCC(=O)O)C(N)=O [SEQ ID NO:9, (S)-4-(3-((S)-2-acetamido-3-phenylpropanamido)propanamido)-5-amino-5-oxopentanoic acid]
cell protective effect (CK and LDH release) (primary cardiomyocytes [1]): substantial cell protective effect

TLR4 expression level (TLR4; 30 min before LPS (100 ng/ml or 20 μg/ml), 4 hours): toward baseline levels
lowering the expression of TLR4 in the presence of LPS, compared with SEQ ID NO: 25 (TLR4; low and high LPS): more effective
SMILES: CC(=O)N[C@H](C(=O)N[C@@H](Cc1ccccc1)C(=O)N[C@@H](C)C(=O)N[C@@H](CCC(=O)O)C(N)=O)C(C)C [SEQ ID NO:2, (4S,7S,10S,13S)-7-benzyl-13-carbamoyl-4-isopropyl-10-methyl-2,5,8,11-tetraoxo-3,6,9,12-tetraazahexadecan-16-oic acid] (Ac-VFAE-NH2)
TLR4 mRNA expression level (TLR4 mRNA): significantly decreased
TLR2 mRNA expression level (TLR2 mRNA): relatively unaffected

SMILES: CC(=O)NC(C(=O)N[C@@H](C)C(=O)N[C@@H](CCC(=O)O)C(N)=O)c1cccc2ccccc12 (stereo partly drawn) [SEQ ID NO:11, (4S)-4-((2S)-2-(2-acetamido-2-(naphthalen-1-yl)acetamido)propanamido)-5-amino-5-oxopentanoic acid]
cell protective effect (CK and LDH release) (primary cardiomyocytes [1]): substantial cell protective effect
